Experimental data from patent publication US20170285010A1, “Analytical Methods and Arrays for Use in the Same” (SENZAGEN AB, priority 2014, published 2017).
Where two headings read alike, the source gives them in different places.

Key:
MUTZ-3 [1] = experiment: GARD Respiratory Prediction Signature (GRPS) SVM classification of the independent test dataset; conditions: for SVM decision value: MUTZ-3, 24 h stimulation at GARD input concentration, 389 GRPS transcripts
Method: (§1) The human acute myelomonocytic leukemia cell line MUTZ-3[68,69] was obtained from Leibniz-lnstitut DSMZ-Deutsche Sammlung von Mikroorganismen and Zellkulturen (DSMZ, Braunschweig, Germany). Maintenance of cells, chemical stimulation of MUTZ-3 and all subsequent isolation of mRNA and preparation of cDNA were performed as previously described. In short, a phenotypic control of MUTZ-3 was performed using flow cytometry prior to chemical stimulation to ensure cells were in an immature state. The following FITC-conjugated mouse monoclonal antibodies (mAbs) were used: CD1a (DakoCytomation, Glostrup, Denmark), CD34, CD86, HLA-DR, IgG1 (BD Biosciences, Franklin Lakes, N.J.). The following PE-conjugated mouse monoclonal antibodies were used: CD14 (DakoCytomation), CD54, CD80, IgG1 (BD Biosciences). Cell viability was determined using Propidium Iodide (BD Biosciences) staining. Samples were run on FACSCanto II instrument. Data was acquired using FACS Diva software (BD Biosciences) and analyzed using FCS Express V4 (De Novo Software, Los Angeles, Calif.). Gating was performed to exclude cell debris and non-viable cells based on forward- and side-scattering properties and quadrants established using isotype-controls. During chemical exposure, cells were seeded at 200.000 cells/ml in 24-well plates and exposed to chemical compound at the GARD input concentration. Stimulated cells were harvested after 24 h incubation at 37° C., 5% CO2 and RNA was isolated with TRIzol® reagent (Life Technologies, Carlsbad, Calif.) using standardized protocols provided by the manufacturer. In parallel, a control of the maturity state of the cells was performed by flow cytometric analysis of CD86. Preparation of cDNA and hybridization, washing and scanning of the Human Gene 1.0 ST Arrays (Affymetrix, Santa Clara, Calif., USA) was performed, according to standardized protocols provided by the manufacturer (Affymetrix).
Gene expression data obtained from the Human Gene 1.0 ST Arrays were normalized using the Single-Channel array normalization (SCAN) algorithm, and potential batch effects between different set of experiments were adjusted using the ComBat empirical bayes method. Normalizations and batch adjustments were performed in R statistical software using the open software Bioconductor v2.14 [73] with the additional software packages SCAN.UPC [70] and sva . Normalized data was imported into Qlucore Omics Explorer 3.0 (Qlucore AB, Lund, Sweden) and visualized using Principal Component Analysis (PCA). Predictors were selected from a one-way ANOVA p-value filtration, using false discovery rate (FDR) to adjust for multiple hypothesis testing, comparing respiratory sensitizers and non-respiratory sensitizers. […] The Backward Elimination algorithm was modified to minimize the Kullback-Leibler error [53] rather than maximizing the Area Under the Receiver Operating Characteristic (AUC ROC), in order to enable signature optimization in cases where the AUC ROC reaches 1.0. […] The script for Backwards Elimination was programmed in R, with the additional package e1071 [78]. The method by which the predictive genomic biomarker signature was established was validated using cross-validation based on Support Vector Machines (SVM), based on a linear kernel, as described previously. In short, the training dataset was randomly divided into a new cross-validation training dataset comprising 70% of the stimulations, and a cross-validation test dataset comprising 30% of the stimulations. In addition, care was taken to maintain the same proportion between respiratory sensitizers and non-respiratory sensitizers as in the complete training dataset. A new predictive genomic biomarker signature was identified from the cross-validation training dataset using one-way ANOVA p-value filtration as described above.

MUTZ-3 [2] = experiment: Chemical cytotoxicity, Rv90 (90% relative viability), propidium iodide staining
From the text: A panel of 32 reference chemicals comprising a selection of 10 well characterized respiratory sensitizers and 22 non-respiratory sensitizers, collectively termed the training dataset, were used for cell stimulations in order to establish the predictive genomic biomarker signature. […] Additionally, a panel of 25 chemicals, including 6 respiratory sensitizers and 19 non-respiratory sensitizers, collectively termed the independent test dataset, were used for cell stimulations in order to form an independent testset for validation of the identified predictive genomic biomarker signature. The independent training dataset comprised both control chemicals, included during the training of the model, as well as chemicals previously unseen during training of the model. […] All chemicals were purchased from Sigma-Aldrich (St. Louis, Mo., USA). Chemicals were dissolved and diluted into GARD input concentration in either water or DMSO prior to stimulation of cells. For chemicals dissolved in DMSO, the in-well concentration of DMSO was 0.1%. Monitoring of chemical cytotoxicity and establishment of GARD input concentration for each chemical compound was performed as previously described. […] Toxic compounds were used at a concentration yielding 90% relative viability (Rv90). The criterion that was first met determined the GARD input concentration for each compound.
as §1

CD86 = CD86 expression of MUTZ-3 cells following chemical stimulation (flow cytometry); type: cell-based, human; conditions: MUTZ-3, 24 h stimulation, compared with vehicle/unstimulated cells, student's t-test p<0.05
Method: CD86 expression of MUTZ-3 cells following chemical stimulations. […] Statistical significance was determined by student's t-test, comparing each stimulation with its corresponding vehicle, with p<0.05 indicated by *.
Maintenance of cells, chemical stimulation of MUTZ-3 and all subsequent isolation of mRNA and preparation of cDNA were performed as previously described [41,42]. In short, a phenotypic control of MUTZ-3 was performed using flow cytometry prior to chemical stimulation to ensure cells were in an immature state. The following FITC-conjugated mouse monoclonal antibodies (mAbs) were used: CD1a (DakoCytomation, Glostrup, Denmark), CD34, CD86, HLA-DR, IgG1 (BD Biosciences, Franklin Lakes, N.J.). The following PE-conjugated mouse monoclonal antibodies were used: CD14 (DakoCytomation), CD54, CD80, IgG1 (BD Biosciences). Cell viability was determined using Propidium Iodide (BD Biosciences) staining. Samples were run on FACSCanto II instrument. Data was acquired using FACS Diva software (BD Biosciences) and analyzed using FCS Express V4 (De Novo Software, Los Angeles, Calif.). Gating was performed to exclude cell debris and non-viable cells based on forward- and side-scattering properties and quadrants established using isotype-controls. During chemical exposure, cells were seeded at 200.000 cells/ml in 24-well plates and exposed to chemical compound at the GARD input concentration. Stimulated cells were harvested after 24 h incubation at 37° C., 5% CO2 and RNA was isolated with TRIzol® reagent (Life Technologies, Carlsbad, Calif.) using standardized protocols provided by the manufacturer. In parallel, a control of the maturity state of the cells was performed by flow cytometric analysis of CD86.
Prior to chemical challenge, cells were quality controlled by measuring the cellular expression of common myeloid and dendritic cell markers using flow cytometry. These markers included CD1a, CD14, CD34, CD54, CD80, CD86 and HLA-DR.

[3] = Max solubility of chemicals for establishing the GARD input concentration
[4] = occupational asthma and allergic contact dermatitis, ref. [64]; cited from earlier work
[5] = concentration yielding 90% relative viability, MUTZ-3, Table 2
[6] = respiratory sensitizer if any replicate stimulation has SVM decision value >0
[7] = concentration yielding 90% relative viability, MUTZ-3, Table 1
[8] = reference compounds used during assay development (Table 1)

| Compound | Classification Pos if 1 sample >0 (MUTZ-3 [1]) | SVM decision value (MUTZ-3 [1]; replicate 1) | SVM decision value (MUTZ-3 [1]; replicate 2) | SVM decision value (MUTZ-3 [1]; replicate 3) | further results |
| --- | --- | --- | --- | --- | --- |
| CCCCO [1-Butanol] | Sensitizer (key: Sensitizer: classified as a respiratory sensitizer if any of replicate stimulations have a SVM decision value > 0) | −0.32 | 0.12 | – | – |
| O=[N+]([O-])c1ccc(Cl)c([N+](=O)[O-])c1 [2,4-dinitrochlorobenzene] | – | −1.66 | −1.18 | −1.90 | Rv90 (MUTZ-3 [2]; [5]): 4 µM; Classification Pos if 1 sample >0 (MUTZ-3 [1]; [6]): Non-sensitizer |
| Nc1ccccc1O [2-Aminophenol] | – | – | – | – | Rv90 (MUTZ-3 [2]; [7]): 100 µM; Chemically induced up-regulation of CD86 (CD86): up-regulation of CD86 was also observed |
| C=CC(=O)OCCO [2-Hydroxyethyl acrylate] | – | – | – | – | Rv90 (MUTZ-3 [2]; [7]): 100 µM |
| Sc1nc2ccccc2s1 [2-mercaptobenzothiazole] | – | −0.44 | −0.43 | −0.57 | – |
| [Cl][Pt-2]([Cl])([Cl])([Cl])([Cl])[Cl].[NH4+].[NH4+] [Ammonium hexachloroplatinate] | – | – | – | – | Chemically induced up-regulation of CD86 (CD86): statistically significant; Max solubility [3, 8]: 35 µM |
| O=Cc1ccccc1 [Benzaldehyde] | – | −0.79 | −0.87 | −0.70 | Classification Pos if 1 sample >0 (MUTZ-3 [1]; [6]): Non-sensitizer |
| Cc1ccc(S(=O)(=O)[N-]Cl)cc1.[Na+] [Chloramine T] | – | 0.52 | 0.59 | – | Classification Pos if 1 sample >0 (MUTZ-3 [1]; [6]): Sensitizer (classified as a respiratory sensitizer if any of replicate stimulations have a SVM decision value > 0) |
| Clc1ccccc1 [Chlorobenzene] | – | −1.03 | −0.76 | −1.15 | SVM decision value (MUTZ-3 [1]; replicate 4): 0.24; SVM decision value (MUTZ-3 [1]; replicate 5): 0.06; Classification Pos if 1 sample >0 (MUTZ-3 [1]; [6]): Sensitizer (classified as a respiratory sensitizer if any of replicate stimulations have a SVM decision value > 0) |
| OCC=Cc1ccccc1 [Cinnamyl alcohol] | Non-sensitizer | −0.57 | −1.44 | −1.26 | – |
| CCOC(=O)c1ccccc1C(=O)OCC [Diethyl phthalate] | – | −1.37 | −0.96 | −1.22 | Classification Pos if 1 sample >0 (MUTZ-3 [1]; [6]): Non-sensitizer |
| C=CCc1ccc(O)c(OC)c1 [Eugenol] | Non-sensitizer | −1.67 | −1.53 | −1.51 | Rv90 (MUTZ-3 [2]; human): 300 µM |
| C=O [Formaldehyde] | – | – | – | – | Rv90 (MUTZ-3 [2]; human): 80 µM |
| O=CCCCC=O [Glutaraldehyde] | – | – | – | – | Rv90 (MUTZ-3 [2]; human): 10 µM; Chemically induced up-regulation of CD86 (CD86): statistically significant |
| OCC(O)CO [Glycerol] | Non-sensitizer | −1.05 | −1.11 | −0.77 | – |
| O=CC=O [Glyoxal] | – | −1.02 | −0.69 | −0.56 | Rv90 (MUTZ-3 [2]; [5]): 300 µM; Classification Pos if 1 sample >0 (MUTZ-3 [1]; [6]): Non-sensitizer |
| CC=Cc1ccc(O)c(OC)c1 [Isoeugenol] | – | – | – | – | Rv90 (MUTZ-3 [2]; human): 300 µM |
| CC(O)C(=O)O (centres unmarked) [Lactic acid] | – | −1.20 | −0.81 | −0.89 | – |
| O=C=Nc1ccc(Cc2ccc(N=C=O)cc2)cc1 [Methylene diphenol diisocyanate] | – | – | – | – | Max solubility [3, 8]: 50 µM |
| CCCCCCCC(=O)O [Octanoic acid] | Non-sensitizer | −0.65 | −0.79 | −1.22 | – |
| Oc1ccccc1 [Phenol] | Non-sensitizer | – | – | – | – |
| O=C1OC(=O)c2ccccc21 [Phtalic Anhydride] | – | 0.20 | −0.12 | – | Classification Pos if 1 sample >0 (MUTZ-3 [1]; [6]): Sensitizer (classified as a respiratory sensitizer if any of replicate stimulations have a SVM decision value > 0); Max solubility ([3]; chemicals of the independent dataset (Table 2)): 200 µM; Max solubility [3, 8]: 200 µM |
| C1CNCCN1 [Piperazine] | Non-sensitizer | −0.05 | −0.12 | – | – |
| Oc1cccc(O)c1 [Resorcinol] | Non-sensitizer | −1.01 | −0.99 | −1.40 | – |
| O=C(O)c1ccccc1O [Salicylic acid] | Non-sensitizer | −0.73 | −1.08 | −1.13 | – |
| CCCCCCCCCCCCOS(=O)(=O)[O-].[Na+] [Sodium dodecyl sulphate] | Non-sensitizer | −1.49 | −0.80 | −1.30 | Rv90 (MUTZ-3 [2]; [5]): 200 µM |
| O=C(O)c1ccc(O)cc1 [p-hydroxybenzoic acid] | Non-sensitizer | −0.81 | −0.56 | −1.09 | – |
| Nc1ccc(N)cc1 [p-phenylenediamine] | – | −1.38 | −1.19 | −1.80 | Rv90 (MUTZ-3 [2]; [5]): 75 µM; Classification Pos if 1 sample >0 (MUTZ-3 [1]; [6]): Non-sensitizer |
| O=c1n(CC2CO2)c(=O)n(CC2CO2)c(=O)n1CC1CO1 (centres unmarked) [triglycidylisocyanurate] | – | – | – | – | Sensitization in humans (OA, ACD) [4]: cause both OA and ACD |
